Assay results published in patent publication US5612331A, “Tetrahydrocarbazole derivatives as 5-HT1-like agonists” (SmithKline Beecham PLC, priority 1992, dated 1997).
pEC50: −log10 of the molar value. Structures can show the parent of a compound that is named as a salt.

Each compound was assayed against T1, 5-HT1-like receptor (Oryctolagus cuniculus, UniProt P49144) (assay: Rabbit isolated basilar artery, cumulative concentration-effect curves (isometric tension)). Details: rabbit isolated basilar artery rings, endothelium removed; in presence of ascorbate, indomethacin, cocaine, ketanserin and prazosin.
T1 construct: the basilar artery removed with the aid of a dissecting microscope; from tissue; host or cells: rabbit basilar artery ring segments, endothelium removed
Type: cell-based
Method: Experiments were performed in intracranial arteries from rabbit isolated basilar artery in a similar method to one described previously (Parsons and Whalley, 1989. Eur J Pharmacol 174, 189-196.).
In brief, rabbits were killed by overdose with anaesthetic (sodium pentobarbitone). The whole brain was quickly removed and immersed in ice cold modified Kreb's solution and the basilar artery removed with the aid of a dissecting microscope. The Krebs solution was of the following composition (mM) Na^+ (120); K^+ (5); Ca^2+ (2.25); Mg^2+ (0.5); Cl^- (98.5); SO4^2- (1); EDTA (0.04), equilibrated with 95% O2 /5% CO2. The endothelium was removed by a gentle rubbing of the lumen with a fine metal wire. Arteries were then cut into ring segments (ca 4-5 mm wide) and set up for recording of isometric tension in 50 ml tissue baths in modified Krebs solution with the additional supplement of (mM); […] (20); fumarate (10); pyruvate (5); L-glutamate (5) and glucose (10). The arteries were then placed under a resting force of 3-4 mN maintained at 37° C. and the solution bubbled with 95% O2 /5% CO2.
After tests for initial reactivity with 90 mM KCl depolarising solution and for lack of acetylcholine-induced relaxation of 5-HT ([…]) precontraction, cumulative concentration-effect curves ([…]) to 5-HT were constructed in the presence of ascorbate […], cocaine […], indomethacin […], ketanserin […] and prazosin […].
Following a 45-60 min wash period, cumulative concentration-effect curves to the test compounds or 5-HT (as a time match control) were constructed in the presence of ascorbate, indomethacin, cocaine, ketanserin and prazosin.

T1 sequence (P49144 whole entry): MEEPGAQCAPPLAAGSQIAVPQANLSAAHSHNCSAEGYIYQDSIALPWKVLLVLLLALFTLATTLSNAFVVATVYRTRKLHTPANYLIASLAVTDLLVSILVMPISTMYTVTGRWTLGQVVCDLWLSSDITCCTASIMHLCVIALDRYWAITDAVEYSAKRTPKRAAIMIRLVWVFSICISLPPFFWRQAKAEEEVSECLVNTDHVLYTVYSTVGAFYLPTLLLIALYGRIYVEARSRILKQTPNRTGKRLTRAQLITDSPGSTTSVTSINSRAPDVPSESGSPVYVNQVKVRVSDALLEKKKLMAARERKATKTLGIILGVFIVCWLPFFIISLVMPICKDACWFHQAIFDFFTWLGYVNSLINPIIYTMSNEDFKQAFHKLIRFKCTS

Structure (SMILES) | pEC50
NC1CCc2[nH]c3ccc(C(=O)NC/C=C/c4ccccc4)cc3c2C1 (stereo not drawn) [Example 15, 3-Amino-6-(E-3-(phenylprop-2-enyl)carboxamido-1,2,3,4-tetrahydrocarbazole oxalate salt] | 5.40 to 7.05
CS(=O)(=O)Nc1ccc(CCNC(=O)c2ccc3[nH]c4c(c3c2)CC(N)CC4)cc1 (stereo not drawn) [Example 7, 3-Amino-6-N-[2-(4-methylsulphonamidophenyl)ethyl]carboxamido-1,2,3,4-tetrahydrocarbazole oxalate salt] | 5.40 to 7.05
COc1ccc(CCNC(=O)c2ccc3[nH]c4c(c3c2)CC(N)CC4)cc1 (stereo not drawn) [Example 8, 3-Amino-6-N-[2-(4-methoxyphenyl)ethyl]carboxamido-1,2,3,4-tetrahydrocarbazole oxalate salt] | 5.40 to 7.05
Nc1ccc(CCNC(=O)c2ccc3[nH]c4c(c3c2)CC(N)CC4)cc1 (stereo not drawn) [Example 6, 3-Amino-6-N-[2-(4-aminophenyl)ethyl]carboxamido-1,2,3,4-tetrahydrocarbazoleoxalate salt] | 5.40 to 7.05
NC1CCc2[nH]c3ccc(C(=O)NCCCc4ccccc4)cc3c2C1 (stereo not drawn) [Example 1, 3-Amino-6-N-(3-phenylpropyl)carboxamido-1,2,3,4-tetrahydrocarbazole oxalate salt] | 5.40 to 7.05
NC1CCc2[nH]c3ccc(C(=O)NCCc4ccccc4)cc3c2C1 (stereo not drawn) [Example 3, 3-Amino-6-N-(2-phenylethyl)carboxamido-1,2,3,4-tetrahydrocarbazole] | 5.40 to 7.05
NC1CCc2[nH]c3ccc(C(=O)NC/C=C/c4cccc([N+](=O)[O-])c4)cc3c2C1 (stereo not drawn) [Example 18, 3-Amino-6-[E-3 (3-nitrophenyl)prop-2-enyl]carboxamido-1,2,3,4-tetrahydrocarbazole oxalate salt] | 5.40 to 7.05
NC1CCc2[nH]c3ccc(C(=O)NCCc4ccc([N+](=O)[O-])cc4)cc3c2C1 (stereo not drawn) [Example 5, 3-Amino-6-N-[2-(4-nitrophenyl)ethyl]carboxamido-1,2,3,4-tetrahydrocarbazolefumarate salt] | 5.40 to 7.05

Further lines, results first:

pEC50 | Structure (SMILES)
5.40 to 7.05 | COc1ccc(/C=C/CNC(=O)c2ccc3[nH]c4c(c3c2)CC(N)CC4)cc1 (stereo not drawn) [Example 13, 3-Amino-6-[E-3-(4-methoxyphenyl)prop-2-enyl]carboxamido-1,2,3,4-tetrahydrocarbazole oxalate salt]
5.40 to 7.05 | NC1CCc2[nH]c3ccc(C(=O)NCCc4ccc(S(N)(=O)=O)cc4)cc3c2C1 (stereo not drawn) [Example 9, 3-Amino-6-N-[2-(4-phenylsulphonamido)ethyl]carboxamido-1,2,3,4-tetrahydrocarbazole]
5.40 to 7.05 | COc1ccc(CCCNC(=O)c2ccc3[nH]c4c(c3c2)CC(N)CC4)cc1 (stereo not drawn) [Example 17, 3-Amino-6-[3-(4-methoxyphenyl)propyl]carboxamido-1,2,3,4-tetrahydrocarbazole oxalate salt]
5.40 to 7.05 | COc1cccc(/C=C/CNC(=O)c2ccc3[nH]c4c(c3c2)CC(N)CC4)c1 (stereo not drawn) [Example 14, 3-Amino-6-[E-3-(3-methoxyphenyl)prop-2-enyl]carboxamido-1,2,3,4-tetrahydrocarbazole oxalate salt]
